Experiments:
Experiment in all cases: KINOMEscan competition binding
Details in all cases: compound 10.0 µM
ABL1 (human) = ABL1 (human) (UniProt P00519)
[1] = test system: ABL1 (human), P00519 [F317I]
AKT3 (human) = AKT3 (human) (UniProt Q9Y243)
ALK (human) = ALK (human) (UniProt Q9UM73)
AURKC (human) = AURKC (human) (UniProt Q9UQB9)
CAMK2B (human) = CAMK2B (human) (UniProt Q13554)
CAMK2D (human) = CAMK2D (human) (UniProt Q13557)
CAMK2G (human) = CAMK2G (human) (UniProt Q13555)
CDK5 (human) = CDK5 (human) (UniProt Q00535)
CDK7 (human) = CDK7 (human) (UniProt P50613)
CSNK1D (human) = CSNK1D (human) (UniProt P48730)
CSNK2A1 (human) = CSNK2A1 (human) (UniProt P68400)
DMPK (human) = DMPK (human) (UniProt Q09013)
EPHA2 (human) = EPHA2 (human) (UniProt P29317)
EPHA7 (human) = EPHA7 (human) (UniProt Q15375)
EPHB1 (human) = EPHB1 (human) (UniProt P54762)
[2] = test system: FLT3 (human), P36888 [D835Y]
[3] = test system: FLT3 (human), P36888 [N841I]
FRK (human) = FRK (human) (UniProt P42685)
HIPK3 (human) = HIPK3 (human) (UniProt Q9H422)
IKBKB (human) = IKBKB (human) (UniProt O14920)
[4] = molecular target: JAK2 JH1 catalytic (human) (UniProt O60674)
[5] = test system: KIT (human), P10721 [V559D/V654A]
MAK (human) = MAK (human) (UniProt P20794)
MAP3K10 (human) = MAP3K10 (human) (UniProt Q02779)
MAPK11 (human) = MAPK11 (human) (UniProt Q15759)
MAPK4 (human) = MAPK4 (human) (UniProt P31152)
MINK1 (human) = MINK1 (human) (UniProt Q8N4C8)
MKNK2 (human) = MKNK2 (human) (UniProt Q9HBH9)
MLTK (human) = MLTK (human) (UniProt Q9NYL2)
MST1R (human) = MST1R (human) (UniProt Q04912)
NLK (human) = NLK (human) (UniProt Q9UBE8)
NUAK2 (human) = NUAK2 (human) (UniProt Q9H093)
OXSR1 (human) = OXSR1 (human) (UniProt O95747)
PI4KB (human) = PI4KB (human) (UniProt Q9UBF8)
PRKAA1 (human) = PRKAA1 (human) (UniProt Q13131)
ROCK1 (human) = ROCK1 (human) (UniProt Q13464)
SRMS (human) = SRMS (human) (UniProt Q9H3Y6)
SRPK1 (human) = SRPK1 (human) (UniProt Q96SB4)
STK36 (human) = STK36 (human) (UniProt Q9NRP7)
STK38 (human) = STK38 (human) (UniProt Q15208)
TNK2 (human) = TNK2 (human) (UniProt Q07912)

Chain of SRMS (human) (Q9H3Y6 whole entry, looked up): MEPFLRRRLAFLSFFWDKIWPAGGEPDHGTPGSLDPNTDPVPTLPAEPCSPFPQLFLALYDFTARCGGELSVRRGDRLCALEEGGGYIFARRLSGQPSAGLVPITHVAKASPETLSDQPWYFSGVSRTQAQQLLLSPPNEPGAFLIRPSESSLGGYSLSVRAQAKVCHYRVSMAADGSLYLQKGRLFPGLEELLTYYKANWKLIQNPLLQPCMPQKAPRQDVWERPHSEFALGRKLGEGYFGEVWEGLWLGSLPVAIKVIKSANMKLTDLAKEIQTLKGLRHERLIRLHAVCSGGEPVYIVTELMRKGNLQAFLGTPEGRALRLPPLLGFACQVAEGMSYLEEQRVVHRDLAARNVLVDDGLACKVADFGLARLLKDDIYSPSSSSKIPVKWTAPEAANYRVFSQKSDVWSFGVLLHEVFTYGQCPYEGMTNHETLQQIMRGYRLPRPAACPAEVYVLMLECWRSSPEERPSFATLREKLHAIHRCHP
Chain of MAP3K10 (human) (Q02779 whole entry, looked up): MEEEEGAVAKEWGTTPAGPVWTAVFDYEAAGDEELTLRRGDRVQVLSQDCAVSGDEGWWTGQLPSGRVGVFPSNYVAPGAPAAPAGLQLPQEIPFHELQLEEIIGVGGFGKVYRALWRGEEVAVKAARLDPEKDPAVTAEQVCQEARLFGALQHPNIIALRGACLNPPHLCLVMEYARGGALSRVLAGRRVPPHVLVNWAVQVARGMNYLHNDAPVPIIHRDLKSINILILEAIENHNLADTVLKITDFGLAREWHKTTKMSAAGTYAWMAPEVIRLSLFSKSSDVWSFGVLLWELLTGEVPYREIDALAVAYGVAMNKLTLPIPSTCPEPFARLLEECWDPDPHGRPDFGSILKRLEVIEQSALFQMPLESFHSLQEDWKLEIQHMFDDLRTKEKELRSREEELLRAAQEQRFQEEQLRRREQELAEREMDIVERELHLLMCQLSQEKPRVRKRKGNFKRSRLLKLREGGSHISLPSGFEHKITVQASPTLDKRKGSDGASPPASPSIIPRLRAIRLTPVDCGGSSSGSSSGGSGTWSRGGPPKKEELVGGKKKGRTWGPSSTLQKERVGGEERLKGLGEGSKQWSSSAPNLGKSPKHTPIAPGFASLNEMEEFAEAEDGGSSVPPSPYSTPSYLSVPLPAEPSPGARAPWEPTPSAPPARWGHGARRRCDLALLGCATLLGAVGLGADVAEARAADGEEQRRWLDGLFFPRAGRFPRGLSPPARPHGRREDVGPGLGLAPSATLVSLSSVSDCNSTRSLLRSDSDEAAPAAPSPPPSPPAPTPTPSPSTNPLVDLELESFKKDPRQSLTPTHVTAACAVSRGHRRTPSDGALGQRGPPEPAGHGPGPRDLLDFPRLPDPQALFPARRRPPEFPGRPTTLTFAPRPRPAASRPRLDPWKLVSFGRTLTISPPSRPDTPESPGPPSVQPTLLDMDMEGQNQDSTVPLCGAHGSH
Chain of MST1R (human) (Q04912 whole entry, looked up): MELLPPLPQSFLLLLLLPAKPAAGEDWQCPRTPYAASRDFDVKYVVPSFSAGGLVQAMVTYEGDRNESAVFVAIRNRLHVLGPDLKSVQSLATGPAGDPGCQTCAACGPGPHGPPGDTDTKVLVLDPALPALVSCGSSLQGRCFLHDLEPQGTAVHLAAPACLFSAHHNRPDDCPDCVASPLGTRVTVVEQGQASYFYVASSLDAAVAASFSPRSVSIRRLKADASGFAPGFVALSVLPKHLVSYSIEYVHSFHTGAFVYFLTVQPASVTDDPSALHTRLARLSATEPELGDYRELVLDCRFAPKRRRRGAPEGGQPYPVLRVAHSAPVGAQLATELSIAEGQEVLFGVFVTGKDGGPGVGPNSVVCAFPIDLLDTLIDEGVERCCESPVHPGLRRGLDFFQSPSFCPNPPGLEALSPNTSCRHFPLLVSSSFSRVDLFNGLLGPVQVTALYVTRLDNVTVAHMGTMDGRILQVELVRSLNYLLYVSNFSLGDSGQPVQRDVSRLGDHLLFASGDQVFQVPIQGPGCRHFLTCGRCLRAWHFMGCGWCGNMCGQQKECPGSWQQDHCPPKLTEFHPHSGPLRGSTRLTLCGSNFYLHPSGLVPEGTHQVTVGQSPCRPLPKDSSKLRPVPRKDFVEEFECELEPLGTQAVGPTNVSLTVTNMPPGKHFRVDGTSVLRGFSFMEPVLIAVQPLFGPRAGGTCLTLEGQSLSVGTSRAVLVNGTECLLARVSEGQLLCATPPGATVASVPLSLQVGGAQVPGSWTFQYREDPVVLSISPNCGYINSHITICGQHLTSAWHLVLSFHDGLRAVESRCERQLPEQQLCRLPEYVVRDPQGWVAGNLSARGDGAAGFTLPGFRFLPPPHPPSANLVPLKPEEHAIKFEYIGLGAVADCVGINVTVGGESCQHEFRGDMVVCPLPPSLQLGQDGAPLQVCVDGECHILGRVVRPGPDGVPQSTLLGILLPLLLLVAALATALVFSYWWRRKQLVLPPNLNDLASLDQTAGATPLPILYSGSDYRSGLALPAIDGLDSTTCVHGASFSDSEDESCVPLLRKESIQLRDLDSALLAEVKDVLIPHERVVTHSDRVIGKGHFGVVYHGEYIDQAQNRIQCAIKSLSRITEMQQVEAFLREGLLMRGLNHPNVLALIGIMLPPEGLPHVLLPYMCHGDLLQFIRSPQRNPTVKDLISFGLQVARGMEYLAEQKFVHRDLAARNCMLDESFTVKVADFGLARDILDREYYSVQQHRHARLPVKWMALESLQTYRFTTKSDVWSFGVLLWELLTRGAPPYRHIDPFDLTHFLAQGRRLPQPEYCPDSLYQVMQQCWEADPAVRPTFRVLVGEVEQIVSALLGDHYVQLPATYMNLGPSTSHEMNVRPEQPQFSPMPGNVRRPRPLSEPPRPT
Chain of ABL1 (human), P00519 [F317I] (P00519 whole entry F317I, looked up): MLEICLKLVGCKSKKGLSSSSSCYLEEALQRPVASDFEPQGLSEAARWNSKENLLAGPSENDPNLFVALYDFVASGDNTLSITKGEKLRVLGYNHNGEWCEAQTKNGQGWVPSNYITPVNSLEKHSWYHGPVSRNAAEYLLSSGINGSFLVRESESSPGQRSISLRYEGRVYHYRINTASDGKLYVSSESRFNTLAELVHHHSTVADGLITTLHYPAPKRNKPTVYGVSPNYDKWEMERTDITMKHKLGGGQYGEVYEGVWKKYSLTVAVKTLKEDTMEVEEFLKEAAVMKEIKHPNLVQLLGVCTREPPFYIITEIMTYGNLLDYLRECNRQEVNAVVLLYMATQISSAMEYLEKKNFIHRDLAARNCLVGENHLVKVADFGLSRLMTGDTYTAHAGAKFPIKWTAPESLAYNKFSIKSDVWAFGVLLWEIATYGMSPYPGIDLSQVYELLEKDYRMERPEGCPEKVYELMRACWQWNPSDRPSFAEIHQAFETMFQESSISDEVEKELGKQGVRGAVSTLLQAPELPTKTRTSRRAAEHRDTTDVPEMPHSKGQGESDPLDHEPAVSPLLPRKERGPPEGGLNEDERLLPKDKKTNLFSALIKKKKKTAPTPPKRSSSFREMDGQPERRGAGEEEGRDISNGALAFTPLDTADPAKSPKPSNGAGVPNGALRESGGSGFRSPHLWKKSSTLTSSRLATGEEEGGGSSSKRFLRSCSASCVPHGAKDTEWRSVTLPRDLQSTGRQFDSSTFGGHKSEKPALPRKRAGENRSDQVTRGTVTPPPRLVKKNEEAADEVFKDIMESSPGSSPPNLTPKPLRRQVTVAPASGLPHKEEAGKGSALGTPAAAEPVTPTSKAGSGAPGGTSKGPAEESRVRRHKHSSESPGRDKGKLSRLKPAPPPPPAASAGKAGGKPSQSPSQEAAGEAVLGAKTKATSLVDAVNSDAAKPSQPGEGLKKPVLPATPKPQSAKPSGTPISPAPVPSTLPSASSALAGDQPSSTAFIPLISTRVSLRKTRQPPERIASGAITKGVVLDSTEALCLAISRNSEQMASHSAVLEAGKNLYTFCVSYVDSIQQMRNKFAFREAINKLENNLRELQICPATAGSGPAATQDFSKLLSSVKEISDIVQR
Chain of JAK2 JH1 catalytic (human) (O60674 whole entry, looked up): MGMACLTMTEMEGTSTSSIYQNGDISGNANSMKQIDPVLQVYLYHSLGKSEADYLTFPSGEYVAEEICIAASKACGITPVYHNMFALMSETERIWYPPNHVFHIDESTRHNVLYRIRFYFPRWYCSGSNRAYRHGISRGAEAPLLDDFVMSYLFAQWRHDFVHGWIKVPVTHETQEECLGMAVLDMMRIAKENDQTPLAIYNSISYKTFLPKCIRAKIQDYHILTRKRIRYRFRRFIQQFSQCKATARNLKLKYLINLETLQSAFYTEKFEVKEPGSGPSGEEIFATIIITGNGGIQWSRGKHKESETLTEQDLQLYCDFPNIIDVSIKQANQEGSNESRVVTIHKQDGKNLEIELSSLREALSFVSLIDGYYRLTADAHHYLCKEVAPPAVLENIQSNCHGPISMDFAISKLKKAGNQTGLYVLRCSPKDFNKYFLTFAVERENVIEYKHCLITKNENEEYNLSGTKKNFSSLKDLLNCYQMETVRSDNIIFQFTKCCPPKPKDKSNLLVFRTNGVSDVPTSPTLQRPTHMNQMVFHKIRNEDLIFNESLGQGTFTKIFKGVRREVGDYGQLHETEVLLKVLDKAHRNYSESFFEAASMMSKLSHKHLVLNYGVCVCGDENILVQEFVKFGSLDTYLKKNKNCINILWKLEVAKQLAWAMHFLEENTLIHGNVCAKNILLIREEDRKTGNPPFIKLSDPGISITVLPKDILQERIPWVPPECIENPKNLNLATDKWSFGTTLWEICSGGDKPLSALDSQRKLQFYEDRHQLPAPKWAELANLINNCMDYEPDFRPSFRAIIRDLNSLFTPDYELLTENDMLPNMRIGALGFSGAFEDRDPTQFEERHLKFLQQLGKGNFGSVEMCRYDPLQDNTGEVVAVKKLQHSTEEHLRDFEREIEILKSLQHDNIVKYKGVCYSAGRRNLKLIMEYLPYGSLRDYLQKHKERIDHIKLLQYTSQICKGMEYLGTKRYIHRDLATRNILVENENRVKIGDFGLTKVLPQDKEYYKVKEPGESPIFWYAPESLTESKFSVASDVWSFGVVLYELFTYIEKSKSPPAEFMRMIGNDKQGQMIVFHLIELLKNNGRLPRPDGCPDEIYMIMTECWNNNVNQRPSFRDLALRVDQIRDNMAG

Cn1cc(C2=C(c3ccc(Cl)cc3Cl)C(=O)NC2=O)c2ccccc21
kinase still bound, per cent of control (ABL1 (human)): 100% | kinase still bound, per cent of control [1]: 100% | kinase still bound, per cent of control (AKT3 (human)): 100% | kinase still bound, per cent of control (ALK (human)): 100% | kinase still bound, per cent of control (AURKC (human)): 96% | kinase still bound, per cent of control (CAMK2B (human)): 55% | kinase still bound, per cent of control (CAMK2D (human)): 56% | kinase still bound, per cent of control (CAMK2G (human)): 58% | kinase still bound, per cent of control (CDK5 (human)): 47% | kinase still bound, per cent of control (CDK7 (human)): 43% | kinase still bound, per cent of control (CSNK1D (human)): 94% | kinase still bound, per cent of control (CSNK2A1 (human)): 35% | kinase still bound, per cent of control (DMPK (human)): 98% | kinase still bound, per cent of control (EPHA2 (human)): 100% | kinase still bound, per cent of control (EPHA7 (human)): 95% | kinase still bound, per cent of control (EPHB1 (human)): 91% | kinase still bound, per cent of control [2]: 16% | kinase still bound, per cent of control [3]: 47% | kinase still bound, per cent of control (FRK (human)): 100% | kinase still bound, per cent of control (HIPK3 (human)): 56% | kinase still bound, per cent of control (IKBKB (human)): 83% | kinase still bound, per cent of control [4]: 96% | kinase still bound, per cent of control [5]: 83% | kinase still bound, per cent of control (MAK (human)): 20% | kinase still bound, per cent of control (MAP3K10 (human)): 100% | kinase still bound, per cent of control (MAPK11 (human)): 98% | kinase still bound, per cent of control (MAPK4 (human)): 100% | kinase still bound, per cent of control (MINK1 (human)): 60% | kinase still bound, per cent of control (MKNK2 (human)): 89% | kinase still bound, per cent of control (MLTK (human)): 93% | kinase still bound, per cent of control (MST1R (human)): 100% | kinase still bound, per cent of control (NLK (human)): 92% | kinase still bound, per cent of control (NUAK2 (human)): 100% | kinase still bound, per cent of control (OXSR1 (human)): 100% | kinase still bound, per cent of control (PI4KB (human)): 94% | kinase still bound, per cent of control (PRKAA1 (human)): 61% | kinase still bound, per cent of control (ROCK1 (human)): 68% | kinase still bound, per cent of control (SRMS (human)): 86% | kinase still bound, per cent of control (SRPK1 (human)): 89% | kinase still bound, per cent of control (STK36 (human)): 100% | kinase still bound, per cent of control (STK38 (human)): 100% | kinase still bound, per cent of control (TNK2 (human)): 100%

COc1ccc(CNC(=O)Nc2ncc([N+](=O)[O-])s2)cc1
kinase still bound, per cent of control (ABL1 (human)): 100% | kinase still bound, per cent of control [1]: 100% | kinase still bound, per cent of control (AKT3 (human)): 92% | kinase still bound, per cent of control (ALK (human)): 100% | kinase still bound, per cent of control (AURKC (human)): 92% | kinase still bound, per cent of control (CAMK2B (human)): 100% | kinase still bound, per cent of control (CAMK2D (human)): 100% | kinase still bound, per cent of control (CAMK2G (human)): 100% | kinase still bound, per cent of control (CDK5 (human)): 72% | kinase still bound, per cent of control (CDK7 (human)): 100% | kinase still bound, per cent of control (CSNK2A1 (human)): 100% | kinase still bound, per cent of control (DMPK (human)): 100% | kinase still bound, per cent of control (EPHA2 (human)): 95% | kinase still bound, per cent of control (EPHA7 (human)): 100% | kinase still bound, per cent of control (EPHB1 (human)): 85% | kinase still bound, per cent of control [2]: 86% | kinase still bound, per cent of control [3]: 89% | kinase still bound, per cent of control (FRK (human)): 98% | kinase still bound, per cent of control (HIPK3 (human)): 100% | kinase still bound, per cent of control (IKBKB (human)): 100% | kinase still bound, per cent of control [4]: 100% | kinase still bound, per cent of control [5]: 88% | kinase still bound, per cent of control (MAK (human)): 94% | kinase still bound, per cent of control (MAP3K10 (human)): 87% | kinase still bound, per cent of control (MAPK11 (human)): 100% | kinase still bound, per cent of control (MAPK4 (human)): 100% | kinase still bound, per cent of control (MINK1 (human)): 86% | kinase still bound, per cent of control (MKNK2 (human)): 100% | kinase still bound, per cent of control (MLTK (human)): 100% | kinase still bound, per cent of control (MST1R (human)): 100% | kinase still bound, per cent of control (NLK (human)): 72% | kinase still bound, per cent of control (NUAK2 (human)): 93% | kinase still bound, per cent of control (OXSR1 (human)): 100% | kinase still bound, per cent of control (PI4KB (human)): 100% | kinase still bound, per cent of control (PRKAA1 (human)): 100% | kinase still bound, per cent of control (ROCK1 (human)): 61% | kinase still bound, per cent of control (SRMS (human)): 75% | kinase still bound, per cent of control (SRPK1 (human)): 100% | kinase still bound, per cent of control (STK36 (human)): 100% | kinase still bound, per cent of control (STK38 (human)): 100% | kinase still bound, per cent of control (TNK2 (human)): 96%

Cc1cnc(-c2cnc(NCCNc3ccc(C#N)cn3)nc2-c2ccc(Cl)cc2Cl)[nH]1
kinase still bound, per cent of control (ABL1 (human)): 96% | kinase still bound, per cent of control [1]: 100% | kinase still bound, per cent of control (AKT3 (human)): 100% | kinase still bound, per cent of control (ALK (human)): 100% | kinase still bound, per cent of control (AURKC (human)): 92% | kinase still bound, per cent of control (CAMK2D (human)): 100% | kinase still bound, per cent of control (CAMK2G (human)): 100% | kinase still bound, per cent of control (CDK5 (human)): 67% | kinase still bound, per cent of control (CDK7 (human)): 64% | kinase still bound, per cent of control (CSNK1D (human)): 81% | kinase still bound, per cent of control (CSNK2A1 (human)): 65% | kinase still bound, per cent of control (DMPK (human)): 92% | kinase still bound, per cent of control (EPHA2 (human)): 96% | kinase still bound, per cent of control (EPHA7 (human)): 100% | kinase still bound, per cent of control (EPHB1 (human)): 96% | kinase still bound, per cent of control [2]: 46% | kinase still bound, per cent of control [3]: 75% | kinase still bound, per cent of control (FRK (human)): 100% | kinase still bound, per cent of control (HIPK3 (human)): 100% | kinase still bound, per cent of control (IKBKB (human)): 80% | kinase still bound, per cent of control [4]: 100% | kinase still bound, per cent of control [5]: 86% | kinase still bound, per cent of control (MAK (human)): 80% | kinase still bound, per cent of control (MAP3K10 (human)): 76% | kinase still bound, per cent of control (MAPK11 (human)): 100% | kinase still bound, per cent of control (MAPK4 (human)): 100% | kinase still bound, per cent of control (MINK1 (human)): 75% | kinase still bound, per cent of control (MKNK2 (human)): 82% | kinase still bound, per cent of control (MST1R (human)): 100% | kinase still bound, per cent of control (NLK (human)): 86% | kinase still bound, per cent of control (NUAK2 (human)): 94% | kinase still bound, per cent of control (OXSR1 (human)): 70% | kinase still bound, per cent of control (PI4KB (human)): 93% | kinase still bound, per cent of control (PRKAA1 (human)): 82% | kinase still bound, per cent of control (ROCK1 (human)): 85% | kinase still bound, per cent of control (SRMS (human)): 95% | kinase still bound, per cent of control (SRPK1 (human)): 100% | kinase still bound, per cent of control (STK36 (human)): 42% | kinase still bound, per cent of control (STK38 (human)): 100% | kinase still bound, per cent of control (TNK2 (human)): 100%
